One test addresses C-Met (Homo sapiens, UniProt P08581). The conditions noted are these: 10 µM inhibitor, 10 µM ATP. On the procedure:
(§1) For this purpose 61 kinases from different representative subgroups (and CK2α and CK2α’) were tested. Testing was performed with inhibitor concentrations of 10 µM and an ATP concentration of 10 μM. The residual enzyme activity as obtained was set in relation to a control without inhibitor.

Test [1] deals with T1, FLT4/VEGFR3 (Homo sapiens, UniProt P35916). The conditions noted are these: 10 µM inhibitor, 10 µM ATP. On the procedure:
as §1

Test [2] deals with T2, KDR/VEGFR2 (Homo sapiens, UniProt P35968). As to conditions: 10 µM inhibitor, 10 µM ATP. On the procedure: as §1
Test [3] has as its target T3, PIM1 (Homo sapiens, UniProt P11309). The conditions noted are these: 10 µM inhibitor, 10 µM ATP. As for the experimental part:
as §1

In a further test the target is PKA (Homo sapiens, UniProt P17612). As to conditions: 10 µM inhibitor, 10 µM ATP. On the procedure:
as §1

Test [4] addresses T4, LCK (Homo sapiens, UniProt P06239). Kind of test: biochemical. As for the experimental part: as §1
The test system of another test is CK2α. The conditions noted are these: towards CK2α, radiometric assay; cited from earlier work.
The target in test [5] is T5, human protein kinase CK2 holoenzyme (CK2α2β2) (Homo sapiens, UniProt P68400).
T5 construct: made in house
Also on record: method as in PMID 22387500. The conditions noted are these: cited from earlier work.

The target in the next test is T6, Aurora A (Homo sapiens, UniProt O14965).
T6 construct: purchased Reaction Biology Corp
T6 sequence (O14965 1-403): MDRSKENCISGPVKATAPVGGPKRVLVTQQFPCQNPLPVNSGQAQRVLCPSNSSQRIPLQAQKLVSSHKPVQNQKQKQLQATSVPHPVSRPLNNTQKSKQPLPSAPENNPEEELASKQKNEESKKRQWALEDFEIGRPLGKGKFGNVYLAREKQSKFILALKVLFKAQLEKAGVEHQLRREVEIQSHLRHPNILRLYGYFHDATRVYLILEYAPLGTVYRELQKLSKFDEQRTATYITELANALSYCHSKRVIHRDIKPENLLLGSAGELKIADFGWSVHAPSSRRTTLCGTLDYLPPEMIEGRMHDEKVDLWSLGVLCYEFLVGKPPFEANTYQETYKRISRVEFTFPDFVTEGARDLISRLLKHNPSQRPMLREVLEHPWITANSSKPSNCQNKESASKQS
Also on record: method as in PMID 22387500. The conditions noted are these: 10 µM inhibitor; cited from earlier work.

Another test concerns the target T7, SKG1 (Homo sapiens, UniProt O00141).
T7 construct: purchased Reaction Biology Corp
Also on record: method as in PMID 22387500. As to conditions: 10 µM inhibitor; cited from earlier work.

Test [6] has as its target T3, PIM1. The arrangement: method as in PMID 22387500. The conditions noted are these: 10 µM inhibitor; cited from earlier work.
For test [7], the target named is T4, LCK. The arrangement: method as in PMID 22387500. The conditions noted are these: 10 µM inhibitor; cited from earlier work.
Another test relates to PKD/PRKD2. Also on record: method as in PMID 22387500. The conditions noted are these: 10 µM inhibitor; cited from earlier work.
For test [8], the target named is T1, FLT4/VEGFR3. The arrangement: purchased Reaction Biology Corp; method as in PMID 22387500. The conditions noted are these: 10 µM inhibitor; cited from earlier work.
For test [9], the target named is T2, KDR/VEGFR2. Also on record: purchased Reaction Biology Corp; method as in PMID 22387500. As to conditions: 10 µM inhibitor; cited from earlier work.

Like-named read-outs stand apart in the source and are kept apart here.

T5 sequence (P68400 whole entry): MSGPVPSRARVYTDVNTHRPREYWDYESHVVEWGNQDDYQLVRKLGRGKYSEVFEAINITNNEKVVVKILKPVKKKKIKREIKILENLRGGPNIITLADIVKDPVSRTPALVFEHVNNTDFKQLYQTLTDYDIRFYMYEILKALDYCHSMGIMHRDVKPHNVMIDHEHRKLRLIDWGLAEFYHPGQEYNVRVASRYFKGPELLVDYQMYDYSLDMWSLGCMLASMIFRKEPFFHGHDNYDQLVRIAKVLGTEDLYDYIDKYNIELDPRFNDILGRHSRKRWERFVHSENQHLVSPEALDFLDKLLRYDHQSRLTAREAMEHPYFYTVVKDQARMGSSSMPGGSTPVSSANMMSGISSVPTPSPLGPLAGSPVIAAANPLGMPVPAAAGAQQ
T5 sequence (P67870 whole entry partner): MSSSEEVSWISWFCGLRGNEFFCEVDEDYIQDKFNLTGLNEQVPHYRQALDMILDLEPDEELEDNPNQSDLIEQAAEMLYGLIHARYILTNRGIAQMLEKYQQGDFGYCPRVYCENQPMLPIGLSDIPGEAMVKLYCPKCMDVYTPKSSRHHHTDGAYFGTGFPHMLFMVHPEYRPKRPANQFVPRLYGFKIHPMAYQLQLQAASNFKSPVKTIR
T2 sequence (P35968 20-1356): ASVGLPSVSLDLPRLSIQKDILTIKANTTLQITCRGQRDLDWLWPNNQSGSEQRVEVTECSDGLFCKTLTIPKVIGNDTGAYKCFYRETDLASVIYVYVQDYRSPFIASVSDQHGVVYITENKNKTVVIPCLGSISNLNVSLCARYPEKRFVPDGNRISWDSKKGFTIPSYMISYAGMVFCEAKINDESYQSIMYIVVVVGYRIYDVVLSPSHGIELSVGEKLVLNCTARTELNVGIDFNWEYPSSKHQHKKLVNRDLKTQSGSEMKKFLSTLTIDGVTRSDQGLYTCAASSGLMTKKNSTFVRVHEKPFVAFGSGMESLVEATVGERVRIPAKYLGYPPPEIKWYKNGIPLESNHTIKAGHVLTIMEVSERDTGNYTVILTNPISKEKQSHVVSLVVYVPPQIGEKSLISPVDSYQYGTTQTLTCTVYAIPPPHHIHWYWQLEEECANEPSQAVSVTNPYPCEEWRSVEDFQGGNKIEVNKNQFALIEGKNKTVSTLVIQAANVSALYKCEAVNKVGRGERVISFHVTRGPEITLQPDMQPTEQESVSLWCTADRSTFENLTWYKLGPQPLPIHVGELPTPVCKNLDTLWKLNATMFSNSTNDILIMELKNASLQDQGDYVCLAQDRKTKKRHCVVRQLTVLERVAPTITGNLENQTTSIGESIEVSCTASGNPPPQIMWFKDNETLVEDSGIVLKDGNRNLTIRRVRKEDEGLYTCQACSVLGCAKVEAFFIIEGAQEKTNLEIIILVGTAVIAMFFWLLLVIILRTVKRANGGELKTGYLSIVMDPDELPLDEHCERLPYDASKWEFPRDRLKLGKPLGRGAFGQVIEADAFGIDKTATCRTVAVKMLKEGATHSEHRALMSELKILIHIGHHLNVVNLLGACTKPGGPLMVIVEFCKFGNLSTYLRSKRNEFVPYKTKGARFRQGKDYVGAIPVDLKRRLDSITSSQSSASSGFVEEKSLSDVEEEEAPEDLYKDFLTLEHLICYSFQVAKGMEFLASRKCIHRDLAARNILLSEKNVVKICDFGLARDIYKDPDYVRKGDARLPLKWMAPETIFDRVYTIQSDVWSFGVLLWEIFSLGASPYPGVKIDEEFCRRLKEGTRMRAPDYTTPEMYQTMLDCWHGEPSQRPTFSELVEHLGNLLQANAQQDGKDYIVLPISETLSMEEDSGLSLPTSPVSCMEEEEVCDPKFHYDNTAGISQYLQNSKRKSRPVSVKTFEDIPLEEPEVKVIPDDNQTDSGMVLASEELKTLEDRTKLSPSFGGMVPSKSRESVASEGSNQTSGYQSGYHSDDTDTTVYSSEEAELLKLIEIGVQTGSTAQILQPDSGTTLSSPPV
T3 sequence (P11309 whole entry): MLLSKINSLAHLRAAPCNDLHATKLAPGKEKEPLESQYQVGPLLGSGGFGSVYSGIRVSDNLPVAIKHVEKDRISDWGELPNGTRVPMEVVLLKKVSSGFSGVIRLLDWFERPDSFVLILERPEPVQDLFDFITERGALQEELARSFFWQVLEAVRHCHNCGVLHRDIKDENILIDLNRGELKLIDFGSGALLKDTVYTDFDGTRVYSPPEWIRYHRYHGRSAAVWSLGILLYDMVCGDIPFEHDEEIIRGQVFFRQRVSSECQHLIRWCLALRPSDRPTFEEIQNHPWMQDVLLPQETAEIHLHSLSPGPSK
T4 sequence (P06239 whole entry): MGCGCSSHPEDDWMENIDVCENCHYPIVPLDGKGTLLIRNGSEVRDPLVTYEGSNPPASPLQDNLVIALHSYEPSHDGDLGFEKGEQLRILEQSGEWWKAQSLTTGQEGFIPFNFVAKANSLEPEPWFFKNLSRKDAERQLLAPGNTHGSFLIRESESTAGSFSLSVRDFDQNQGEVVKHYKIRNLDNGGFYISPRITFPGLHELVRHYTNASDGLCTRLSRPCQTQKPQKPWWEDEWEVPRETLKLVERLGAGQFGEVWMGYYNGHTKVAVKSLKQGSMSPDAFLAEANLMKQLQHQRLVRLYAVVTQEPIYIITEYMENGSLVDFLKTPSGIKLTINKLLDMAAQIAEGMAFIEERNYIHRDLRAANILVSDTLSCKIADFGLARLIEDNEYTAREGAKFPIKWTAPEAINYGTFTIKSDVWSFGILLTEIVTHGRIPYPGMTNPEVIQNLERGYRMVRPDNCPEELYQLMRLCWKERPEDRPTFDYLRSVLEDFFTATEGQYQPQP
T1 sequence (P35916 25-1363): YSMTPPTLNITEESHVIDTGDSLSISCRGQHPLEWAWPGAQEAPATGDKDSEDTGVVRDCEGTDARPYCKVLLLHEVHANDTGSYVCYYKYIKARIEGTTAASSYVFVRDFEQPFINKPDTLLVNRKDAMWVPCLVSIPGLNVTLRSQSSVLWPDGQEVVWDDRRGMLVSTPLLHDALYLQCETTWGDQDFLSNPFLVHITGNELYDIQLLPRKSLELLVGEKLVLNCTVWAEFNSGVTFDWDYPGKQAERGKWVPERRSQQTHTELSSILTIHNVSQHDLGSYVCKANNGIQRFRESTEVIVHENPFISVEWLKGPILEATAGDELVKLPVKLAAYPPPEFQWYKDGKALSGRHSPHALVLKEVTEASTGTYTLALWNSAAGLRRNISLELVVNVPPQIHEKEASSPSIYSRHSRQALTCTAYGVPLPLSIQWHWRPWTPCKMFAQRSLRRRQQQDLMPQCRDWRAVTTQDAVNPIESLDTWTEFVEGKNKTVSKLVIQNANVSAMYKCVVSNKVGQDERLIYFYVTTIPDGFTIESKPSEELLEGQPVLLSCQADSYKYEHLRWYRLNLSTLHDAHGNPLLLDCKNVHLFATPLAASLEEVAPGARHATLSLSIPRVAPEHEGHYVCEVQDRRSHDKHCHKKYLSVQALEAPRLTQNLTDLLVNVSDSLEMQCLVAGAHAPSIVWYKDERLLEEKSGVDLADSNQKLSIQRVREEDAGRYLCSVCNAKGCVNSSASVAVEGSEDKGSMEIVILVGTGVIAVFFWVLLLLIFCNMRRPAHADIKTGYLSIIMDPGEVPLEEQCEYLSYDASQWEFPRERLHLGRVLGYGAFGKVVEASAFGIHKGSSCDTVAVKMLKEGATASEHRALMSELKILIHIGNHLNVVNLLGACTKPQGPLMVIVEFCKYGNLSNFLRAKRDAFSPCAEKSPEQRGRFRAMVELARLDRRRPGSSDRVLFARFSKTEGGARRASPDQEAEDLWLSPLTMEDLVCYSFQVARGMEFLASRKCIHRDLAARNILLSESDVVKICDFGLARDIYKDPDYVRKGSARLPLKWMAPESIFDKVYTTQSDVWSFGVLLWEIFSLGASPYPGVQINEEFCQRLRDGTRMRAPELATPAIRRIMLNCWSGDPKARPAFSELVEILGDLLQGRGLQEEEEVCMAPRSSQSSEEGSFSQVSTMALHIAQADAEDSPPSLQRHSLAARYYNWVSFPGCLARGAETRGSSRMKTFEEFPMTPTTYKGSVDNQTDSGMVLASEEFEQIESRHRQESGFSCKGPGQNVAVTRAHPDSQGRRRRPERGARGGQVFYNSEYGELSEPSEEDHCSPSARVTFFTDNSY
T7 sequence (O00141 whole entry): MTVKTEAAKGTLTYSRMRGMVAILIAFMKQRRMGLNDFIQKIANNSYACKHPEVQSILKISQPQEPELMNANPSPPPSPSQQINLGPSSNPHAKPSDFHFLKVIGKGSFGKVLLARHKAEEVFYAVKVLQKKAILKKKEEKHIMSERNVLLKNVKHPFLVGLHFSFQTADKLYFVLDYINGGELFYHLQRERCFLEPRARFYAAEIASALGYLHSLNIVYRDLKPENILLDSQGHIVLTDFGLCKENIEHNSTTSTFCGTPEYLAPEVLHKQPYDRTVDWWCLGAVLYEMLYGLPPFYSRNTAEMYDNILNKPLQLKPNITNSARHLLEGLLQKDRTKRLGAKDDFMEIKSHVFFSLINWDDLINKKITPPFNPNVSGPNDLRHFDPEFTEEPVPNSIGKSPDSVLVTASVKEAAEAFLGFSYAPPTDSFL

Regarding `COc1ccc(/N=C/c2c(O)ccc3c2oc2cc(Cl)c(O)c(Cl)c23)cc1` [compound 5, (E)-1,3-dichloro-6-[(4-methoxyphenylimino)methyl]dibenzo[b,d]furan-2,7-diol], the “kinase inhibited more than 70% at 10 µM concentration” value at C-Met is “C-Met”; at FLT4/VEGFR3 [1], “FLT4/VEGFR3”; on KDR/VEGFR2 [2], “KDR/VEGFR2”; on PIM1 [3] it was “PIM1”; at PKA it was “PKA”. Besides, the inhibition – broadly, the change of the read-out against control, counted positive when it falls – at 10 µM on LCK [4] turned out to be 68%. The IC50 (in general, the point on the concentration scale where inhibition reaches its midpoint) with CK2α was 7 nM.

On to `Cc1ccc(NC=C2C(=O)CCc3c2oc2c(Cl)c(Cl)c(O)cc32)cc1` [4b, 6,7-dichloro-1,4-dihydro-8-hydroxy-4-[(4-methylphenylamino)methylene]dibenzo[b,d]furan-3(2H)-one], for which the Ki – broadly, a dissociation constant, usually derived from enzyme kinetics or from competition with a known ligand – in [5] (ATP concentrations 6 µM to 400 µM) was 15 nM. Also, the 50% inhibitory concentration (IC50) in test [5] (earlier work of the authors) was 29 nM. In addition, the “kinase inhibited more than 70% at 10 µM concentration” value at Aurora A is reported as “Aurora A”; on SKG1, “SKG1”; on PIM1 [6], “PIM1”; at LCK [7], “LCK”; with PKD/PRKD2, “PKD/PRKD2”; on FLT4/VEGFR3 [8], “FLT4/VEGFR3”. For the same molecule, the “kinase inhibited more than 70% at 10 µM concentration” value at KDR/VEGFR2 [9] is “KDR/VEGFR2”.

The values above are taken from publication PMC5874719, “A π-Halogen Bond of Dibenzofuranones with the Gatekeeper Phe113 in Human Protein Kinase CK2 Leads to Potent Tight Binding Inhibitors” (Pharmaceuticals, 2018).
